From patent publication EP0064820A1, “Substituted imidazole and imidazoline derivatives and their preparation and use” (Farmos-Yhtyma Oy, priority 1981, dated 1982)

How the values were obtained:
[1] = test system: Sprague-Dawley rats; assay: anti-hypertensive test in urethane-anesthetized rats, blood pressure and pulse frequency recorded after injection; type: in vivo
Experimental: The anti-hypertensive properties of the imidazole derivatives of the present invention have been determined according to the following procedure. Sprague-Dawley rats of normal weight were first anesthetized with urethane. After this, the femoral artery was connected by way of a polyethylene tube with a blood pressure transducer. The test substance was then injected into the femoral vein and the blood pressure and the pulse frequency were registered with a recorder.

[2] = test system: thrombocytes from a cow; assay: antithrombotic activity in vitro: inhibition of ADP- and collagen-induced aggregation of thrombocytes, turbidimetric; type: cell-based; settings: cow plasma; for inhibition of ADP-induced aggregation of thrombocytes: ADP added after 10 min incubation; for inhibition of collagen-induced aggregation of thrombocytes: collagen added after 10 min incubation
Experimental: The antithrombotic activity was investigated in vitro. The inhibiting activity of the compounds against ADP- and collagen-induced aggregation of thrombocytes was measured. In the test thrombocytes from a cow were used. To 1.2 ml of plasma containing 250000 thrombocytes/mm^3 were added 50 µl of a solution of the compound to be tested. After 10 min incubation either ADP or collagen was added. The aggregation of the thrombocytes was turbidimetrically determined at X = 605 nm.

[3] = acute toxicity in mice, i.v.; settings: mouse, in vivo, iv
Experimental: Acute toxicity was determined by using female mice of NMRI-Strain with an age of about 7 months and weighing 30-40 g. The administration of the test compound was i.v.

[4] = test system: Sprague-Dawley rats; assay: anti-hypertensive test in urethane-anesthetized rats, blood pressure and pulse frequency recorded after injection; type: in vivo; settings: i.c.v. dosage compared with i.v.
[5] = dose of the maximum not stated, within the active dose range

| Compound | inhibition of ADP-induced aggregation of thrombocytes [2] | inhibition of collagen-induced aggregation of thrombocytes [2] | LD50 [3] [mg/kg] | further results |
| --- | --- | --- | --- | --- |
| Cc1cccc(C)c1CCc1ncc[nH]1 [2-[2-(2,6-dimethylphenyl)-ethyl]-imidazole] | effectively | effectively | 20 | pulse frequency ([1]; at high dosages): slight decrease; effect on blood pressure ([1]; dose 300 µg/kg i.v.): lowered blood pressure of long duration; decrease of the blood pressure ([1]; dose 3 mg/kg i.v., rats): 30%; effect on blood pressure ([1]; dose 30 and 100 µg/kg i.v. in rats): lowered the blood pressure for a shorter time; effect on blood pressure ([1]; doses of 30 mg/kg i.v.): did not elevate the blood pressure; blood pressure lowered by i.c.v. dosage with smaller amounts (than i.v.) [4]: 10 x |
| Cc1ccc(CCc2ncc[nH]2)cc1C [2-[2-(3,4-dimethylphenyl)-ethyl]-imidazole] | – | – | 40 | lowered the blood pressure by ([1]; dose 10 mg/kg): 20% |
| Cc1cccc(C)c1CCC(O)c1nccn1Cc1ccccc1 (centres unmarked) [1-Benzyl-2-[3-(2,6-dimethylphenyl)-1-hydroxypropyl]-imidazole] | effectively | effectively | 65 | – |
| Cc1cccc(CCC2=NCCN2)c1C [2-[2-(2,3-dimethylphenyl)-ethyl]-imidazoline] | – | – | 30 | maximal decrease of the blood pressure [1, 5]: 26% |
| Cc1cccc(C)c1CCC1=NCCN1 [2-[2-(2,6-dimethylphenyl)-ethyl]-imidazoline] | – | – | 25 | lowers the blood pressure by ([1]; dose 1-3 mg/kg in rats): 20% |
| Cc1c[nH]c(CCc2cccc(C)c2C)n1 [2-[2-(2,3-dimethylphenyl)-ethyl]-4-methyl-imidazole] | effectively | effectively | 35 | maximal decrease of the blood pressure [1, 5]: 32% |
| Cc1ccccc1Cc1nc(C)c(C)[nH]1 [2-(2-methylbenzyl)-4,5-dimethyl-imidazole] | effectively | effectively | 30 | – |
| Cc1cccc(C)c1CC(O)c1ncc[nH]1 (stereo not drawn) [2-[2-(2,6-dimethylphenyl)-l-hydroxyethyl]-imidazole] | – | – | 60 | effect on blood pressure ([1]; dose 10 mg/kg): lowers the blood pressure for a longer period; effect on blood pressure ([1]; dose 1 and 3 mg/kg i.v.): lowering of the blood pressure of short duration; pulse frequency ([1]; dose not stated): very slightly influenced |
| Cc1ccc(C)c(CC(O)c2ncc[nH]2)c1 (centres unmarked) [2-[2-(2,5-dimethylphenyl)-1-hydroxyethyl]-imidazole] | effectively | effectively | 45 | – |
| Cc1ccc(C)c(CCc2ncc[nH]2)c1 [2-[2-(2,5-dimethylphenyl)-ethyl]-imidazole] | – | – | 30 | maximal decrease of the blood pressure ([1]; obtained with a dose of 10 mg/kg i.v.): 37% |
| Cc1ccc(CC(O)c2ncc[nH]2)cc1C (centres unmarked) [2-[2-(3,4-dimethylphenyl)-1-hydroxyethyl]-imidazole] | – | – | 50 | maximal decrease of the blood pressure [1, 5]: 17% |
| Cc1cccc(C)c1C=Cc1ncc[nH]1 [2-[2-(2,6-dimethylphenyl)-ethenyl]-imidazole] | – | – | 40 | lowers the blood pressure by ([1]; dose 3 mg/kg i.v. in rats): 17 per cent; pulse frequency ([1]; dose not stated): no effect |
| Cc1c[nH]c(CCc2c(C)cccc2C)n1 [2-[2-(2,6-dimethylphenyl)-ethyl]-4-methyl-imidazole] | – | – | 25 | lowered the blood pressure by ([1]; dosage 300 µg/kg i.v.): 45% |
